Data as given in patent US9427482B2, “Agents for clearing biomolecules from circulation” (KONINKLIJKE PHILIPS N.V., priority 2010, dated 2016).

How the values were obtained:
[1] = test system: LS174T xenografts; test: Biodistribution with single and repeated dose of clearing agent 12 (Example 7); assay type: in vivo, mice
Protocol: (§1) LS174T tumor model. The human colon cancer cell line LS174T was obtained from the ATCC and maintained in Eagle's minimal essential medium (Sigma) supplemented with 10% heat inactivated fetal calf serum (Gibco), penicillin (100 U/mL), streptomycin (100 μg/mL) and […] Glutamax. Nude female Balb/C mice (20-25 g body weight, Charles River Laboratories) were inoculated subcutaneously with 5×10^6 cells in 100 μL sterile PBS.
Nude female mice (n=4-6) bearing LS174T xenografts (0.38±0.23 g) were injected ^125I-CC49-TCO (t=0, 100 μg/100 μl per mouse) followed by (a) one 160 μg/100 μl dose of galactose-MSA-tetrazine (12) 48 hours post mAb injection, or (b) two 160 μg/100 μl 12 doses 46 and 48 hours post mAb injection, or (c) two 160 μg/100 μl 12 doses 28 and 48 hours post mAb injection. At 50 hours post mAb injection, the mice received 8.52 μg ^111In-tetrazine and were then sacrificed three hours later, blood was withdrawn by heart puncture and selected organs and tissues were harvested and blotted dry. The blood samples and tissues were weighed, added with 1 mL PBS and the radioactivity was counted in a gamma counter along with standards to determine the % ID/g. The biodistribution data of ^125I-CC49-TCO and ^111In-tetrazine are shown in Table 2 and the ^111In-tetrazine T/organ values are shown in Table 3.

[2] = without clearing agent, 21.3 μg tetrazine/mouse 24 hours post mAb injection; cited from earlier work
[3] = test system: LS174T xenografts; test: Dual isotope biodistribution with different amounts of clearing agent 12 (Example 6); assay type: in vivo, mice
Protocol: as §1
Nude female mice (n=3-4) bearing LS174T xenografts (0.32±0.16 g) were injected ^125I-CC49-TCO (t=0, 100 μg/100 μl per mouse) followed by 20-200 μg galactose-MSA-tetrazine (12) dissolved in 100 μl saline solution (t=24 hours) and ^111In-labeled 15 (21.3 μg/75 μl per mouse, t=26 hours). At 29 hours post mAb injection, the mice were sacrificed, blood was withdrawn by heart puncture and selected organs and tissues were harvested and blotted dry. The blood samples and tissues were weighed, added with 1 mL PBS and the radioactivity was counted in a gamma counter along with standards to determine the % ID/g (Table 1).

[4] = One dose (a): 12 at 48 h post mAb
[5] = Two doses (b): 12 at 46 and 48 h
[6] = Two doses (c): 12 at 28 and 48 h

O=C([O-])CN1CCN(CC(=O)[O-])CCN(CC(=O)NCCOCCOCCOCCOCCOCCOCCOCCOCCOCCOCCOCCNC(=O)CCCC(=O)Nc2ccc(-c3nnc(-c4ccccn4)nn3)nc2)CCN(CC(=O)[O-])CC1.[111In+3] [^111In-tetrazine]
^111In-tetrazine T/organ blood [1, 4]: 8.2±4.1 | ^111In-tetrazine T/organ bone [1, 4]: 10.5 ± 6.5 | ^111In-tetrazine T/organ brain [1, 4]: 148.05 ± 61.18 | ^111In-tetrazine T/organ heart [1, 4]: 6.7 ± 1.3 | ^111In-tetrazine T/organ kidney [1, 4]: 2.8 ± 0.3 | ^111In-tetrazine T/organ liver [1, 4]: 10.9 ± 1.7 | ^111In-tetrazine T/organ lung [1, 4]: 3.1 ± 0.5 | ^111In-tetrazine T/organ muscle [1, 4]: 9.2±3.6 | ^111In-tetrazine T/organ spleen [1, 4]: 11.3 ± 3.3 | ^111In-tetrazine in blood [1, 4]: 0.40 ± 0.10 % ID/g | ^111In-tetrazine in bone [1, 4]: 0.33 ± 0.12 % ID/g | ^111In-tetrazine in brain [1, 4]: 0.02 ± 0.00 % ID/g | ^111In-tetrazine in heart [1, 4]: 0.45 ± 0.08 % ID/g | ^111In-tetrazine in kidney [1, 4]: 1.07 ± 0.10 % ID/g | ^111In-tetrazine in liver [1, 4]: 0.27 ± 0.04 % ID/g | ^111In-tetrazine in lung [1, 4]: 0.97 ± 0.17 % ID/g | ^111In-tetrazine in muscle [1, 4]: 0.35 ± 0.08 % ID/g | ^111In-tetrazine in spleen [1, 4]: 0.27 ± 0.04 % ID/g | ^111In-tetrazine in tumor [1, 4]: 2.98 ± 0.51 % ID/g | ^111In-tetrazine T/organ blood [1, 5]: 15.2 ± 4.1 | ^111In-tetrazine T/organ bone [1, 5]: 16.7 ± 6.7 | ^111In-tetrazine T/organ brain [1, 5]: 222.2 ± 73.6 | ^111In-tetrazine T/organ heart [1, 5]: 25.6 ± 12.0 | ^111In-tetrazine T/organ kidney [1, 5]: 1.6 ± 0.6 | ^111In-tetrazine T/organ liver [1, 5]: 11.5 ± 3.7 | ^111In-tetrazine T/organ lung [1, 5]: 8.5 ± 4.2 | ^111In-tetrazine T/organ muscle [1, 5]: 19.3 ± 9.2 | ^111In-tetrazine T/organ spleen [1, 5]: 15.1 ± 4.9 | ^111In-tetrazine in blood [1, 5]: 0.10 ± 0.02 % ID/g | ^111In-tetrazine in bone [1, 5]: 0.10 ± 0.02 % ID/g | ^111In-tetrazine in brain [1, 5]: 0.01 ± 0.00 % ID/g | ^111In-tetrazine in heart [1, 5]: 0.07 ± 0.02 % ID/g | ^111In-tetrazine in kidney [1, 5]: 0.95 ± 0.06 % ID/g | ^111In-tetrazine in liver [1, 5]: 0.13 ± 0.01 % ID/g | ^111In-tetrazine in lung [1, 5]: 0.20 ± 0.07 % ID/g | ^111In-tetrazine in muscle [1, 5]: 0.09 ± 0.03 % ID/g | ^111In-tetrazine in spleen [1, 5]: 0.10 ± 0.00 % ID/g | ^111In-tetrazine in tumor [1, 5]: 1.52 ± 0.48 % ID/g | ^111In-tetrazine T/organ blood [1, 6]: 89.0±14.3 | ^111In-tetrazine T/organ bone [1, 6]: 93.5 ± 19.7 | ^111In-tetrazine T/organ brain [1, 6]: 750.2 ± 87.5 | ^111In-tetrazine T/organ heart [1, 6]: 82.9 ± 21.3 | ^111In-tetrazine T/organ kidney [1, 6]: 3.7 ± 0.8 | ^111In-tetrazine T/organ liver [1, 6]: 32.3 ± 5.9 | ^111In-tetrazine T/organ lung [1, 6]: 27.9 ± 7.0 | ^111In-tetrazine T/organ muscle [1, 6]: 146.3±30.3 | ^111In-tetrazine T/organ spleen [1, 6]: 42.4 ± 7.7 | ^111In-tetrazine in blood [1, 6]: 0.05 ± 0.00 % ID/g | ^111In-tetrazine in bone [1, 6]: 0.05 ± 0.01 % ID/g | ^111In-tetrazine in brain [1, 6]: 0.01 ± 0.00 % ID/g | ^111In-tetrazine in heart [1, 6]: 0.05 ± 0.01 % ID/g | ^111In-tetrazine in kidney [1, 6]: 1.18 ± 0.13 % ID/g | ^111In-tetrazine in liver [1, 6]: 0.13 ± 0.01 % ID/g | ^111In-tetrazine in lung [1, 6]: 0.16 ± 0.03 % ID/g | ^111In-tetrazine in muscle [1, 6]: 0.03 ± 0.00 % ID/g | ^111In-tetrazine in spleen [1, 6]: 0.10 ± 0.01 % ID/g | ^111In-tetrazine in tumor [1, 6]: 4.30 ± 0.50 % ID/g | T/blood ratio [2]: 2.2±0.5 | ^111In-tetrazine T/B ([3]; 12 dose 20 μg/mouse): 4.5 ± 0.5 | ^111In-tetrazine Tumor ([3]; 12 dose 20 μg/mouse): 3.7 ± 0.8 % ID/g | ^111In-tetrazine T/B ([3]; 12 dose 45 μg/mouse): 4.8 ± 0.3 | ^111In-tetrazine Tumor ([3]; 12 dose 45 μg/mouse): 4.1 ± 1.3 % ID/g | ^111In-tetrazine T/B ([3]; 12 dose 80 μg/mouse): 9.2 ± 1.6 | ^111In-tetrazine Tumor ([3]; 12 dose 80 μg/mouse): 3.8 ± 1.1 % ID/g | ^111In-tetrazine T/B ([3]; 12 dose 120 μg/mouse): 11.5 ± 4.2 | ^111In-tetrazine Tumor ([3]; 12 dose 120 μg/mouse): 3.0 ± 0.8 % ID/g | ^111In-tetrazine T/B ([3]; 12 dose 160 μg/mouse): 31.6 ± 10.5 | ^111In-tetrazine Tumor ([3]; 12 dose 160 μg/mouse): 5.1 ± 1.4 % ID/g | ^111In-tetrazine T/B ([3]; 12 dose 200 μg/mouse): 19.2 ± 3.0 | ^111In-tetrazine Tumor ([3]; 12 dose 200 μg/mouse): 3.6 ± 0.9 % ID/g
